Data from patent publication US8937091B2 (Japan Science and Technology Agency, priority 2009, dated 2015).

Experiments:
[1] = tested on: SOCE (store operated calcium entry) in CHO cells; test: Assay of SOCE (store operated calcium entry)-inhibiting action; assay type: cell-based, Chinese hamster; settings: Cricetulus griseus, CHO, CHO cells, thapsigargin, read-out: SOCE level (percentage of inhibition); for inhibition at 10 µM: test compound 10 μmol; for inhibition at 30 µM: test compound 30 μmol; for inhibition at 100 µM: test compound 100 μmol
Procedure, shortened: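 CHO cells in calcium-free BSS received compound, then 1 μM thapsigargin 2 min later to deplete stores; after 9 min, 2 mM calcium chloride (final) added. Percent inhibition of the rise in intracellular calcium determined at various compound concentrations.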

[2] = tested on: IICR (IP3 induced calcium release) in CHO cells; test: Assay of IICR (IP3 induced calcium release)-inhibiting action; assay type: cell-based, Chinese hamster; settings: Cricetulus griseus, CHO, CHO cells, 10 μM ATP, read-out: IICR level (percentage of inhibition); for inhibition at 10 µM: test compound 10 μmol; for inhibition at 30 µM: test compound 30 μmol; for inhibition at 100 µM: test compound 100 μmol
Procedure, shortened: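 Inhibition (%) of the intracellular calcium increase triggered by 10 μM ATP, measured in CHO cells in BSS with calcium. Compound given 1 min after the buffer exchange and 2 min before ATP; values reported per compound concentration.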

Structure (SMILES)	inhibition at 10 µM [1]	inhibition at 30 µM [1]	inhibition at 100 µM [1]	inhibition at 10 µM [2]	inhibition at 30 µM [2]	inhibition at 100 µM [2]
CN1CCN(CCC(=O)c2ccc(Br)s2)CC1 [Example 363, 2-(N-methylpiperadino)ethyl-5-bromo-2-thienylketone]	0%	0%	14%	0%	0%	70%
O=C(CCNCCc1cnc[nH]1)c1ccc(Br)s1 [Example 364, 2-(4-imidazolylethyl)aminoethyl-5-bromo-2-thienylketone]	24%	49%	70%	0%	0%	40%
CCC(CO)(CO)NCCC(=O)c1ccc(Br)s1 [Example 365, 2-(N-1,1-bishydroxymethylpropyl)aminoethyl-5-bromo-2-thienylketone]	0%	0%	10%	0%	0%	70%
NCCSSCCN(CCC(=O)c1ccc(Cl)s1)CCC(=O)c1ccc(Cl)s1 [Example 366, N,N-bis(2-(5-chloro-2-thiophenoyl)ethyl)cystamine]	6%	0%	90%	0%	0%	70%
NCCSSCCN(CCC(=O)c1ccc(Br)cc1)CCC(=O)c1ccc(Br)cc1 [Example 367, N,N-bis(2-(4-bromo-benzoyl)ethyl)cystamine]	0%	17%	96%	0%	0%	70%
CCCCN(CCC(=O)c1ccc(Br)s1)Cc1ccccc1 [Example 373, 2-(N-butyl-N-benzyl)aminoethyl-5-bromo-2-thienylketone]	100%	28%	65%	0%	36%	0%
CCCCN(CCC(=O)c1ccc(Cl)s1)Cc1ccccc1 [Example 374, 2-(N-butyl-N-benzyl)aminoethyl-5-chloro-2-thienylketone]	0%	0%	53%	0%	8%	0%
CCCCN(CCC(=O)c1ccc(Br)cc1)Cc1ccccc1 [Example 375, 2-(N-butyl-N-benzyl)aminoethyl-4-bromophenylketone]	4%	0%	40%	0%	33%	0%
CCCCN(CCC(=O)c1ccncc1)Cc1ccccc1 [Example 376, 2-(N-butyl-N-benzyl)aminoethyl-4-pyridylketone]	21%	0%	27%	18%	84%	51%
CCCCN(CCC(=O)c1ccco1)Cc1ccccc1 [Example 377, 2-(N-butyl-N-benzyl)aminoethyl-2-furylketone]	21%	0%	27%	22%	20%	36%
CCCCN(CCC(=O)c1ccc2ccccc2c1)Cc1ccccc1 [Example 378, 2-(N-butyl-N-benzyl)aminoethyl-2-naphthylketone]	0%	0%	41%	50%	24%	46%
O=C(CCN(CCO)Cc1ccccc1)c1ccc(I)s1 [Example 379, 2-(N-2-hydroxyethyl-N-benzyl)aminoethyl-5-iodo-2-thienylketone]	20%	40%	50%	50%	24%	46%
O=C(CCNCc1ccccc1)c1ccc(Br)s1 [Example 382, 2-N-benzylaminoethyl-5-bromo-2-thienylketone]	0%	10%	20%	0%	10%	50%
CCCCCCN(CCCCCC)CCC(=O)c1ccc(Br)s1 [Example 383, 2-(N,N-dihexyl)aminoethyl-5-bromo-2-thienylketone]	25%	16%	46%	0%	5%	0%
CC(C)CN(CCC(=O)c1ccc(Br)s1)CC(C)C [Example 384, 2-(N,N-diisobutyl)aminoethyl-5-bromo-2-thienylketone]	0%	10%	100%	0%	35%	70%
CCCCCCN(CCCCCC)CCC(=O)c1ccc(Cl)s1 [Example 385, 2-(N,N-dihexyl)aminoethyl-5-chloro-2-thienylketone]	0%	95%	53%	0%	14%	0%
N[C@@H](CSSC[C@@H](C(=O)O)N(CCC(=O)c1ccc(Cl)s1)CCC(=O)c1ccc(Cl)s1)C(=O)O [Example 387, N,N-bis(2-(5-chloro-2-thiophenoyl)ethyl)cystine]	20%	40%	50%	0%	0%	70%
NCCSSCCN(CCC(=O)c1ccc(I)cc1)CCC(=O)c1ccc(I)cc1 [Example 388, N,N-bis(4-iodobenzoylethyl)cystamine]	20%	40%	50%	0%	0%	70%
CC(C)N(CCC(=O)c1ccc(I)s1)Cc1ccccc1 [Example 390, 2-(N-isopropyl-N-benzyl)aminoethyl-5-iodo-2-thienylketone]	20%	40%	50%	0%	0%	70%
CC(C)N(CCC(=O)c1ccc(Br)s1)C(C)C [Example 395, 2-diisopropylaminoethyl-5-bromo-2-thienylketone]	20%	40%	50%	14%	67%	83%
CC(C)N(CCC(=O)c1ccc(Cl)s1)C(C)C [Example 396, 2-diisopropylaminoethyl-5-chloro-2-thienylketone]	20%	40%	50%	2%	72%	83%
